Key:
BTK = target: T1, BTK (Homo sapiens, UniProt Q06187); assay: BTK degradation activity test in Mino cells (Westernblot or Elisa); format: cell-based; details: 24-72 h incubation
T1 construct: endogenous in cells; host or cells: Mino cells
Description: The Mino cell line cells are 0.5˜1 million/well in 6-well plates. The compounds are diluted to different concentrations, added to the plate, and after 24-72 h of incubation, the cells are collected. After the cells were lysed, the total protein concentration in each well was determined with a BCA kit. The amount of BTK is determined using the Westernblot or Elisa method.

Mino cells = assay: Inhibitory activity on Mino cell proliferation (MTS); format: cell-based; details: Homo sapiens, 72 h or 168 h
Description: (§1) The anti-tumor efficacy of the compounds was tested by measuring their inhibitory effects on OCI-LY10 and Mino cell proliferation. OCI-LY10 and Mino cells were cultured in RPM-1640 medium containing […] fetal calf serum. OCI-LY10 and Mino cells were digested, inoculated in a 96-well plate at a cell concentration of 10000 cells/well, and incubated overnight at 37° C., 5% CO2. Compounds of different concentrations (1000 nM, 4-fold dilution, 8 points) were added to the 96-well plate and incubated for 72 h or 168 h at 37° C. and […], and then 20 μL of MTS was added to each well. After incubation for 2 h, 25 μl of 10% SDS was added to each well to terminate the reaction. The absorbance at 490 nm and 650 nm were measured with a microplate reader. IC50 was calculated using GraphPad Prism 5.0.

OCI-LY10 cells = assay: Inhibitory activity on OCI-LY10 cell proliferation (MTS); format: cell-based; details: Homo sapiens, 72 h or 168 h
Description: as §1

[1] = Liver microsomal metabolic stability, human; format: in vitro ADME; details: human liver microsomes, NADPH, 37° C.
Description: (§2) Under the condition of ice bath, 1 mg of human or Mouse liver microparticles was add to PBS (1 mL) buffer, then NADPH (20 μL) was added, and incubated at 37° C. for 5 min. 10 μL of the compound to be tested was added, then suck several times with a pipette and divide into 3 aliquots of 330 μL; each and then samples were taken at 0, 15, 30, 60 and 120 min respectively. 10 μL of the solution was taken with a pipette each time and added to 490 μL of the solution containing the internal standard compound. The resulting solution was vortexed and then placed on ice, and then sampling at another time point continues. All samples were centrifuged at 10,000 rpm for 10 min, and the supernatant was taken for LC/MS testing. The metabolism of the compound in liver microsomes was calculated based on the peak area.

[2] = Liver microsomal metabolic stability, mouse; format: in vitro ADME; details: mouse liver microsomes, NADPH, 37° C.
Description: as §2

Mouse absorption test = format: in vivo; details: mice, intragastric 10 mg/kg, plasma
Description: (§3) Experimental method: mice were used as experimental animals, and drugs were administered intragastrically at 10 mg/kg (5% DMSO+5% Solutol+90% saline). The blood collection time points for intragastric administration were 0.25, 0.5, 1, 2, 4, 6, 8, and 24 h. 0.3 ml of whole blood was taken, and 0.1 ml of plasma was taken after centrifugation and analyzed by LC-MS.

Rat absorption test = format: in vivo; details: SD rats, intragastric 10 mg/kg, plasma
Description: as §3, with “SD Rats” for “Experimental method: mice”, “Solutol+90% normal” for “Solutol+90%”

T1 sequence (Q06187 whole entry): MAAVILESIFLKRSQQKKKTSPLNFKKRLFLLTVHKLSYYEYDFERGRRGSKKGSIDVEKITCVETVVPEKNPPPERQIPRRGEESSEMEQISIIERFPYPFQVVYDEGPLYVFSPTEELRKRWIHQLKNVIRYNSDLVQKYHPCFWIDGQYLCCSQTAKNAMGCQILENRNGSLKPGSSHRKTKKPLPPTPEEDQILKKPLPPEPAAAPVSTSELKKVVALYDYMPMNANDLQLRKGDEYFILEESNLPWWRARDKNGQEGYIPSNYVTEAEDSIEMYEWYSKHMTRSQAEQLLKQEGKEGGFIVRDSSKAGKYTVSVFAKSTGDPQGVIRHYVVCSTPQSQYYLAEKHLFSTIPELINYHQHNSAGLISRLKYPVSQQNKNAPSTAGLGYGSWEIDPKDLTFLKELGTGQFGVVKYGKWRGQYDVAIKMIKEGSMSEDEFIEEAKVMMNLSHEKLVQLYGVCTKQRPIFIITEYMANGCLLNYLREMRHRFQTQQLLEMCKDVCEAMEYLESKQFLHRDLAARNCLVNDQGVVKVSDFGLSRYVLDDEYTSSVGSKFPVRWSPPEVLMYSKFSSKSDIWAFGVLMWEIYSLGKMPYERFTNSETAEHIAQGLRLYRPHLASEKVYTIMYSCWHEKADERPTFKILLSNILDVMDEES

Row | Structure (SMILES) | DC50 (BTK) | IC50 (OCI-LY10 cells) | Thalf (min) Human [1] | Thalf (min) Mouse [2] | DNAUC (Mouse absorption test) | DNAUC (Rat absorption test) | IC50 (Mino cells)
1 | NC(=O)c1nnc(N2CCCCC2)nc1Nc1ccc(C2CCN(CC3CCN(c4ccc5c(c4)C(=O)N(C4CCC(=O)NC4=O)C5=O)C3)CC2)cc1 (stereo not shown) [Compound 001, 5-((4-(1-((1-(2-(2,6-dioxopiperidin-3-yl)-1,3-dioxoisoindolin-5-yl)pyrrolidin-3-yl)methyl)piperidin-4-yl)phenyl)amino)-3-(piperidin-1-yl)-1,2,4-triazine-6-carboxamide] | < 10 nM | 3 nM | 71.37 min | 47.13 min | 2300 AUC (h*ng/mL)/dose (mg/kg) |  | 5.5 nM
2 | NC(=O)c1nnc(N2CCCCC2)nc1Nc1ccc(C2CCN(CC3CCN(c4ccc5c(c4)C(=O)N(C4CCC(=O)NC4=O)C5=O)C3)CC2)c(F)c1 (stereo not shown) [Compound 002, 5-((4-(1-((1-(2-(2,6-dioxopiperidin-3-yl)-1,3-dioxoisoindolin-5-yl)pyrrolidin-3-yl)methyl)piperidin-4-yl)-3-fluorophenyl)amino)-3-(piperidin-1-yl)-1,2,4-triazine-6-carboxamide] | < 10 nM |  | 120 min | 54 min | 2223 AUC (h*ng/mL)/dose (mg/kg) | 252 AUC (h*ng/mL)/dose (mg/kg) | 
3 | NC(=O)c1nnc(N2CCCCC2)nc1Nc1ccc(N2CCN(CC3CCN(c4ccc5c(c4)C(=O)N(C4CCC(=O)NC4=O)C5=O)C3)CC2)c(F)c1 (stereo not shown) [Compound 003, 5-((4-(4-((1-(2-(2,6-dioxopiperidin-3-yl)-1,3-dioxoisoindolin-5-yl)pyrrolidin-3-yl)methyl)piperazin-1-yl)-3-fluorophenyl)amino)-3-(piperidin-1-yl)-1,2,4-triazine-6-carboxamide] | < 10 nM |  |  |  | 1648 AUC (h*ng/mL)/dose (mg/kg) | 456 AUC (h*ng/mL)/dose (mg/kg) | 
4 | NC(=O)c1nnc(N2CCCCC2)nc1Nc1ccc(C2CCN(CC3CCN(c4ccc5c(c4)C(=O)N(C4CCC(=O)NC4=O)C5=O)CC3)CC2)c(F)c1 (stereo not shown) [Compound 007, 5-((4-(1-((1-(2-(2,6-dioxopiperidin-3-yl)-1,3-dioxoisoindolin-5-yl)piperidin-4-yl)methyl)piperidin-4-yl)-3-fluorophenyl)amino)-3-(piperidin-1-yl)-1,2,4-triazine-6-carboxamide] | < 10 nM |  |  |  | 1955 AUC (h*ng/mL)/dose (mg/kg) |  | 5.31 nM
5 | NC(=O)c1nnc(N2CCCCC2)nc1Nc1ccc(N2CCC(CN3CCN(c4ccc5c(c4)C(=O)N(C4CCC(=O)NC4=O)C5=O)CC3)CC2)c(F)c1 (stereo not shown) [Compound 044, 5-((4-(4-((4-(2-(2,6-dioxopiperidin-3-yl)-1,3-dioxoisoindolin-5-yl)piperazin-1-yl)methyl)piperidin-1-yl)-3-fluorophenyl)amino)-3-(piperidin-1-yl)-1,2,4-triazine-6-carboxamide] | < 10 nM |  |  |  | 1941 AUC (h*ng/mL)/dose (mg/kg) |  | 3.46 nM

Now from value to molecule, other results behind:

Row | DC50 (BTK) | IC50 (OCI-LY10 cells) | Thalf (min) Human [1] | Thalf (min) Mouse [2] | DNAUC (Mouse absorption test) | DNAUC (Rat absorption test) | Structure (SMILES) | IC50 (Mino cells)
6 | < 10 nM |  |  |  | 1867 AUC (h*ng/mL)/dose (mg/kg) |  | NC(=O)c1nnc(N2CCCCC2)nc1Nc1ccc(N2CCC(CN3CCN(c4cc5c(cc4F)C(=O)N(C4CCC(=O)NC4=O)C5=O)CC3)CC2)cc1 (stereo not shown) [Compound 046, 5-((4-(4-((4-(2-(2,6-dioxopiperidin-3-yl)-6-fluoro-1,3-dioxoisoindolin-5-yl)piperazin-1-yl)methyl)piperidin-1-yl)phenyl)amino)-3-(piperidin-1-yl)-1,2,4-triazine-6-carboxamide] | 
7 | < 10 nM | 0.51 nM |  |  |  | 1125 AUC (h*ng/mL)/dose (mg/kg) | Cc1cc(N2CCC(CN3CCN(c4ccc(Nc5nc(N6CCCCC6)nnc5C(N)=O)cc4F)CC3)CC2)ccc1N1CCC(=O)NC1=O [Compound 075, 5-((4-(4-((1-(4-(2,4-dioxotetrahydropyrimidin-1(2H)-yl)-3-methylphenyl)piperidin-4-yl)methyl)piperazin-1-yl)-3-fluorophenyl)amino)-3-(piperidin-1-yl)-1,2,4-triazine-6-carboxamide] | 1.42 nM
8 | < 10 nM | 1.59 nM | 57 min | 79 min |  | 285 AUC (h*ng/mL)/dose (mg/kg) | NC(=O)c1nnc(N2CCCCC2)nc1Nc1ccc(N2CCN(CC3CCN(c4ccc(NC5CCC(=O)NC5=O)nc4)CC3)CC2)c(F)c1 (stereo not shown) [Compound 077, 5-((4-(4-((1-(6-((2,6-dioxopiperidin-3-yl)amino)pyridin-3-yl)piperidin-4-yl)methyl)piperazin-1-yl)-3-fluorophenyl)amino)-3-(piperidin-1-yl)-1,2,4-triazine-6-carboxamide] | 
9 | < 10 nM | 1.15 nM |  |  |  | 6611 AUC (h*ng/mL)/dose (mg/kg) | NC(=O)c1nnc(N2CCCCC2)nc1Nc1ccc(N2CCN(CC3CCN(c4ccc(C(=O)NC5CCC(=O)NC5=O)nc4)C3)CC2)c(F)c1 (stereo not shown) [Compound 079, 5-((4-(4-((1-(6-((2,6-dioxopiperidin-3-yl)carbamoyl)pyridin-3-yl)pyrrolidin-3-yl)methyl)piperazin-1-yl)-3-fluorophenyl)amino)-3-(piperidin-1-yl)-1,2,4-triazine-6-carboxamide] | 
10 | < 10 nM |  |  |  |  | 372 AUC (h*ng/mL)/dose (mg/kg) | NC(=O)c1nnc(N2CCCCC2)nc1Nc1ccc(N2CCN(CC3CCN(c4ncc(-c5ccc(=O)[nH]n5)cc4C(F)(F)F)CC3)CC2)c(F)c1 [Compound 081, 5-((3-fluoro-4-(4-((1-(5-(6-oxo-1,6-dihydropyridazin-3-yl)-3-(trifluoromethyl)pyridin-2-yl)piperidin-4-yl)methyl)piperazin-1-yl)phenyl)amino)-3-(piperidin-1-yl)-1,2,4-triazine-6-carboxamide] | 
11 | < 10 nM | 0.57 nM |  |  |  | 579 AUC (h*ng/mL)/dose (mg/kg) | NC(=O)c1nnc(N2CCCCC2)nc1Nc1ccc(N2CCN(CC3CCN(c4ccc(C(=O)NC5CCC(=O)NC5=O)nc4)CC3)CC2)c(F)c1 (stereo not shown) [Compound 085, 5-((4-(4-((1-(6-((2,6-dioxopiperidin-3-yl)carbamoyl)pyridin-3-yl)piperidin-4-yl)methyl)piperazin-1-yl)-3-fluorophenyl)amino)-3-(piperidin-1-yl)-1,2,4-triazine-6-carboxamide] | 
12 | < 10 nM | 0.89 nM | 78 min | 63 min |  |  | CC(=O)N[C@@H]1CCCN(c2nnc(C(N)=O)c(Nc3ccc(N4CCN(CC5CCN(c6ccc(N7CCC(=O)NC7=O)c(C)c6)CC5)CC4)c(F)c3)n2)C1 [Compound 090, (R)-3-(3-acetamidopiperidin-1-yl)-5-((4-(4-((1-(4-(2,4-dioxotetrahydropyrimidin-1(2H)-yl)-3-methylphenyl)piperidin-4-yl)methyl)piperazin-1-yl)-3-fluorophenyl)amino)-1,2,4-triazine-6-carboxamide] | 1.94 nM
13 | < 10 nM | 0.24 nM | 41 min | 90 min |  |  | CC(=O)N[C@@H]1CCCN(c2nnc(C(N)=O)c(Nc3ccc(N4CCN(CC5CCN(c6ccc(C(=O)NC7CCC(=O)NC7=O)nc6)CC5)CC4)c(F)c3)n2)C1 (stereo partly drawn) [Compound 092, 3-((R)-3-acetamidopiperidin-1-yl)-5-((4-(4-((1-(6-((2,6-dioxopiperidin-3-yl)carbamoyl)pyridin-3-yl)piperidin-4-yl)methyl)piperazin-1-yl)-3-fluorophenyl)amino)-1,2,4-triazine-6-carboxamide] | 3.28 nM

Reference: patent US20260167620A1, “MULTIFUNCTIONAL COMPOUND CAPABLE OF DEGRADING BTK KINASE, AND COMPOSITION AND USE” (HANGZHOU HEALZEN THERAPEUTICS CO., LTD., priority 2021, published 2026)
